Source: patent US8426358B2, “Methods for treating atherosclerosis” (Amgen Inc., priority 2006, dated 2013)
Numbering of substitutions follows the chain as printed.

Legend:
LCAT = experiment: Plasma LCAT activity assay in LCAT-deficient (lcat -/-) plasma samples; assay type: biochemical; details: lcat -/- mutant mouse plasma, in the presence or absence of compound
Description: (§1) Activity of the modified LCAT of the invention and activities of compounds of the invention were determined by measuring change of the rate of conversion of ^3H-labeled cholesterol to cholesteryl ester (CE). In the plasma LCAT activity assay, human plasma samples were equilibrated with a trace amount of radiolabeled cholesterol at 4° C. and the rate of cholesterol esterification was measured by TLC analysis after incubation at 37° C. (Dobiasova, supra). EC50 represents a compound concentration achieving 50% of maximal activation of LCAT-mediated cholesterol esterification. Results presented in FIG. 2(A) confirm activity and specificity of the compounds of the invention on LCAT enzyme. This experiment studied the effect of Compound A in LCAT-deficient plasma samples obtained from lcat mutant mice. Ng et al. (1997) J. Biol. Chem. 272:1 5777-81.

LCAT mutant H377A = target: T1, LCAT mutant H377A (Homo sapiens, UniProt P04180, H401A); experiment: Activity of loss-of-function LCAT mutant H377A with or without compound; assay type: biochemical; details: nonfunctional enzyme
T1 construct: full-length human LCAT cDNA was isolated from normal human liver cDNA library; FLAG (C); His (C); made in house; host or cells: CHO cells, secreted into serum-free medium
T1 sequence (P04180 25-440 H401A): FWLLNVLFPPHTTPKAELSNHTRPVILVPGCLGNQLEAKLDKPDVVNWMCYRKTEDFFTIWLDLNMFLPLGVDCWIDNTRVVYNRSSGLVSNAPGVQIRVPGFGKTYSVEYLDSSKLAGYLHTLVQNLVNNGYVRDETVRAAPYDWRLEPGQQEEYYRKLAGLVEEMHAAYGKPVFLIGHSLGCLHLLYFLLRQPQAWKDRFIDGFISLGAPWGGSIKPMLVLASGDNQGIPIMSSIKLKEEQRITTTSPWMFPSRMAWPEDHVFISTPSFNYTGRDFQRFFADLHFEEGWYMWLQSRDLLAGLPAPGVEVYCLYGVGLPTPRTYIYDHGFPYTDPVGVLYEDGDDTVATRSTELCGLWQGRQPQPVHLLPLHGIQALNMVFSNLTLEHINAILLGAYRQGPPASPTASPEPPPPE
From the text: (§2) For measuring compound activity using apoAI-liposome assay format, full-length human LCAT cDNA was isolated from normal human liver cDNA library (BioChain, Hayward, Calif.) with standard protocol and cloned into a pCMV-Flag vector (See Example 18). Recombinant LCAT was expressed in CHO cells and the enzyme secreted from stably transfected cells was harvested in serum-free culture medium. Recombinant LCAT identity was confirmed with anti-human LCAT and anti-Flag antibodies. The activity of recombinant LCAT enzyme was determined using apoAI-liposome substrates prepared by the standard cholate-dialysis procedure (Chen et al. (1982) J. Lipid Res. 23: 680-691. The initial mixture contained egg PC/^3H-unesterfied cholesterol/human apoAI (molar ratio of 250:12.5:0.8). After dialysis the proteoliposomes were incorporated with recombinant LCAT protein. LCAT activity was determined by measuring the conversion of radiolabeled cholesterol to cholesteryl ester and expressed in nmol CE/mL per hour.
(§3) Results summarized in FIG. 2(B) illustrate the mechanism of action of compounds of the invention on LCAT enzyme. Two loss-of-function LCAT mutants, H377A and S181A were generated, in which the critical catalytic triad of the enzyme was destroyed as described in Francone et al. (1991) Biochemistry 30: 10074-77; Peelman et al. (1998) Protein Sci. 7: 587-599; and Peelman et al. (2000) Curr. Opin. Lipidol. […]

LCAT mutant S181A = target: T2, LCAT mutant S181A (Homo sapiens, UniProt P04180, S205A); experiment: Activity of loss-of-function LCAT mutant S181A with or without compound; assay type: biochemical; details: nonfunctional enzyme
T2 construct: full-length human LCAT cDNA was isolated from normal human liver cDNA library; FLAG (C); His (C); made in house; host or cells: CHO cells, secreted into serum-free medium
T2 sequence (P04180 25-440 S205A): T1 sequence (P04180 25-440 H401A) with S181A, A377H
From the text: as §2, §3

LCAT C184A mutant = target: T3, LCAT C184A mutant (Homo sapiens, UniProt P04180, C208A); experiment: Activation of recombinant LCAT C184A mutant; assay type: biochemical; details: recombinant protein
T3 construct: full-length human LCAT cDNA was isolated from normal human liver cDNA library; FLAG (C); His (C); made in house; host or cells: CHO cells, secreted into serum-free medium
T3 sequence (P04180 25-440 C208A): T1 sequence (P04180 25-440 H401A) with C184A, A377H
From the text: as §2, §3

LCAT C31A mutant = target: T4, LCAT C31A mutant (Homo sapiens, UniProt P04180, C55A); experiment: Activation of recombinant LCAT C31A mutant; assay type: biochemical; details: recombinant protein
T4 construct: full-length human LCAT cDNA was isolated from normal human liver cDNA library; FLAG (C); His (C); made in house; host or cells: CHO cells, secreted into serum-free medium
T4 sequence (P04180 25-440 C55A): T1 sequence (P04180 25-440 H401A) with C31A, A377H
From the text: as §2, §3

LCAT enzyme = target: T5, LCAT enzyme (Mus musculus, UniProt P16301); experiment: Plasma LCAT activity after IP dosing of BALB/c mice; assay type: in vivo; details: male, DEPG vehicle, FIG. 3
T5 construct: from tissue; host or cells: plasma of BALB/c mice dosed IP
T5 sequence (P16301 25-438): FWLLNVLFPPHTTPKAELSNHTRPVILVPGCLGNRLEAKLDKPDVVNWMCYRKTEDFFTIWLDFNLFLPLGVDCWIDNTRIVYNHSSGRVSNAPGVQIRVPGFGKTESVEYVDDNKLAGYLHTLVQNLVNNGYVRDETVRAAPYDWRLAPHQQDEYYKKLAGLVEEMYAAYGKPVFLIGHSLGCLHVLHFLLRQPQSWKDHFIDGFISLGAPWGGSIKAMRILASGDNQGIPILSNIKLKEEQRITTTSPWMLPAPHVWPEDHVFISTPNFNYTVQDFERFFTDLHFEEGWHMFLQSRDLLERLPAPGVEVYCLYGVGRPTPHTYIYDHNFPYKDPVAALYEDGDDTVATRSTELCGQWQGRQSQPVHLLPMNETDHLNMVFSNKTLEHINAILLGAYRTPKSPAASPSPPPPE
Description: as §1, with “esterification.” for “esterification. Results presented in FIG. 2(A) confirm activity and specificity of the compounds of the invention on LCAT enzyme. This experiment studied the effect of Compound A in LCAT-deficient plasma samples obtained from lcat mutant mice. Ng et al. (1997) J. Biol. Chem. 272:1 5777-81.”
(§4) Rodents used for assessing the in vivo effects of the compounds of the invention include BALB/c mice, CD1 mice, and Syrian hamsters of wild type fed with normal chew. These animals were treated with either vehicle or Compound A (3-(5-ethylthio)-1,3,4-thiadiazol-2-ylthio)pyrazine-2-carbonitrile) by IP injection. At time points (see Figures) after compound administration, blood samples were collected, plasma was immediately separated, and plasma levels of lipids, lipoprotein and LCAT activity were determined.
Briefly, BALB/c mice (male, 7 weeks old) were treated with either vehicle or Compound A by intra-peritoneal (IP) in the indicated doses. Animals were fed normal chow diet. […]

[1] = Plasma HDL cholesterol in CD1 mice after IP dosing; assay type: in vivo; details: IP 20 mg/kg, one dose per day, 4 days, FIG. 4
Description: as §4
CD1 male three month old mice were treated with either vehicle (control) or with Compound A by IP injection (20 mg/kg, one dose per day, 4 days, n=8). Plasma samples were collected and HDL cholesterol concentrations were determined standard reagents and assay protocol using clinical analyzer (Infinity).

[2] = Plasma TC, HDL and LpB cholesterol in Syrian hamsters after IP dosing; assay type: in vivo; details: IP 20 mg/kg, one dose per day, 4 days, FIG. 6
Description: as §4
Hamsters (Syrian, male, 12 weeks old, n=6 per group) were treated with either vehicle (control) or Compound A via IP administration (20 mg/kg, one dose per day, 4 days). Plasma samples were collected and concentrations of total cholesterol (TC), panel B, and HDL cholesterol (panel A) were measured. LpB cholesterol contents were obtained by subtracting HDL from TC (panel C).

[3] = FPLC elution profiles of pooled hamster plasma (cholesterol, triglyceride); assay type: in vivo; details: hamsters, IP 20 mg/kg/day, 4 days, FIG. 7
Description: Hamsters (n=6) were treated with either vehicle (control), or Compound A via IP administration (20 mg/kg/day, 4 days). Plasma samples were pooled within each treatment group, and separated by FPLC using two serially connected Superose 6 columns (Pharmacia Biotech Inc.). Cholesterol (panel A) and triglyceride (panel B) levels were determined in 0.5 ml fractions.

[4] = HDL particle size profiles by Gradient Gel Electrophoresis (GGE) of pooled hamster plasma; assay type: in vivo; details: hamsters, 20 mg/kg/day, 4 days
Description: Hamsters were treated with either vehicle or Compound A as described above (20 mg/kg/day, 4 days, n=6). Plasma samples were collected and pooled for each group. An aliquot of pooled plasma was analyzed using GGE as described in Blanche et al. (1981) BBA 665: 408-419.

## CCSc1nnc(Sc2nccnc2C#N)s1 [Compound A]
LCAT
  LCAT activity in LCAT-deficient plasma: No LCAT activity was detected
LCAT mutant H377A
  LCAT activity of H377A mutant: No activity was observed
LCAT mutant S181A
  LCAT activity of S181A mutant: No activity was observed
LCAT C184A mutant
  Response of C184A mutant to compound (LCAT activation): able to respond to the treatment in a dose dependent manner comparable to that of the wild type enzyme
LCAT C31A mutant
  Response of C31A mutant to compound (LCAT activation): failed to be activated
LCAT enzyme
  Plasma LCAT enzyme activity: increase LCAT enzyme activity in a dose dependent manner
[1]
  HDL cholesterol levels: increases HDL cholesterol levels
[2]
  HDL levels: increases HDL levels
  apoB-containing lipoprotein (LpB cholesterol = TC minus HDL): decreases apoB-containing lipoprotein
[3]
  HDL particle size (FPLC): increases HDL particle size
  HDL-Ch levels (FPLC): increases HDL-Ch levels
  TG levels in the VLDL fraction (FPLC): decrease TG levels in the VLDL fraction
[4]
  HDL particle size (GGE): increase of HDL particle size
[4]; GGE
  HDL particle size profile, HDL subclass 2a: 39
  HDL particle size profile, HDL subclass 2b: 56
  HDL particle size profile, HDL subclass 3a: 3
  HDL particle size profile, HDL subclass 3b: 1
  HDL particle size profile, HDL subclass 3c: 1
